In PubChem BioAssay AID179 (DTP/NCI, 2004):
Activity calls are given as the source filed them.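 The calls were made as follows: active = compounds giving half or more protection of infected cells from virus-caused growth loss, again on retest; inactive = the rest.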 *1 amine or outer side, *2 acyl side, *3 side chain or, on linkers, in order; H or OH if unused. Where a SMILES comes first, the peptide text is derived from it. Bridges are numbered along the chain shown (N, C = ends). [ ]: non-standard residue; d: D form. The star is where a group is joined. ξ: configuration not given here. Fmoc = O=C(OCC1c2ccccc2-c2ccccc21)*; X2 = O=C(C(CCCCNO[*:3])N[*:1])[*:2]; ξW = NC(Cc1c[nH]c2ccccc12)C(=O)O; Cbz = O=C(OCc1ccccc1)*; ξP = O=C(O)C1CCCN1; NHNH2 = NN*

Test system: CEM cells HIV-1 protection, formazan growth assay
Assay: NCI AIDS Antiviral Assay
Details: for IC50: measured here: growth of uninfected CEM cells
How it was run: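 Protection of CEM cells against HIV-1 was scored from cell growth (soluble formazan) across five concentrations, with parallel uninfected cells. Lack of protection may reflect toxicity.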

| SMILES | EC50 [µM] | IC50 [µM] | outcome |
| --- | --- | --- | --- |
| Clc1ccccc1CN1COc2c(ccc3cccnc23)C1 | > 30.9 | 1.58 | – |
| CN(C)c1ccc(-c2nn(C)c3nc(=O)n(C)c(=O)c-3[n+]2[O-])cc1 | > 200 | 0.562 | – |
| CC(=O)Nc1cc(N=Nc2ccc(NC(=O)c3ccc(N)cc3)cc2C)c(S(=O)(=O)O)cc1N=Nc1ccc(N=Nc2ccc(S(=O)(=O)O)cc2)cc1 | 5.62 | > 100 | – |
| CC(C)(C)OC(=O)NC(Cc1ccc(OC(C)(C)C)cc1)C(=O)N[C@H]1CC[C@H](C(=O)O)C1 (stereo not given in full) | – | – | inactive |
| O=c1[nH][nH]c(=O)n1Cc1ccccc1 | > 200 | > 200 | – |
| O=C1C=CC(=O)c2c(O)ccc(O)c21 | > 200 | 3.89 | – |
| O=[N+]([O-])c1nccn1COCCO | > 1320 | > 1320 | – |
| CCOC(=O)C(c1ccccc1)[N+](C)(C)C (stereo not given) | > 200 | > 200 | – |
| Cc1ccc([N+](=O)[O-])c2c(NCCC[N+](C)(C)[O-])ccnc12 | > 200 | 28.8 | – |
| C/C(=C\c1ccccc1)n1c(=O)cc(C)n1C | > 200 | > 200 | – |
| CC(=O)OC12c3ccccc3-c3ccccc3C1C1C(=O)OC(=O)C12 (stereo not given) | > 282 | > 282 | – |
| CCOc1ccccc1N=NC1C(=O)N(C(=O)CC(=O)Nc2ccccc2OC)N=C1C (stereo not given) | > 200 | > 200 | – |
| CN1CCCNC(=S)C1 | – | – | inactive |
| CC(=O)Oc1cc(C)c2c(c1)CCC1C3CCC(OC(C)=O)C3(C)CC(O[N+](=O)[O-])C21O (stereo not given) | > 200 | > 200 | – |
| CCN(CC)CCN1CCc2c([nH]c3ccccc23)C1c1cccnc1 (stereo not given) | > 145 | > 145 | – |
| C/C=C/CSc1cc(NC(=S)c2ccsc2C)ccc1Cl | 0.263 | 12.3 | – |
| Clc1ccc(C(OCn2ccnc2)c2nc3ccccc3[nH]2)c(Cl)c1 (stereo not given) | > 200 | 107 | – |
| CC(=O)OC1C[C@](C)(O)/C=C/CC(C)/C=C/[C@@]2(C)CCC(C(C)(C)O)C12 (stereo not given in full) | – | – | inactive |
| O=C(O)c1cc2ccc(O)c(O)c2cn1 | > 56.2 | 2.04 | – |
| CSc1ncc2c(C#N)c3sc4ccccc4n3c(=O)c2n1 | > 200 | > 200 | – |
| CC(C)C(Sc1nc(-c2ccccc2)c(-c2ccccc2)[nH]1)C(=O)NN (stereo not given) | > 10.2 | 4.9 | – |
| S=C(c1c[nH]c2ccccc12)N1CCCCC1 | > 200 | 44.7 | – |
| Cc1ccccc1NS(=O)(=O)c1c(N)ncn1C | > 832 | > 832 | – |

| SMILES | EC50 [µM] | IC50 [µM] | outcome |
| --- | --- | --- | --- |
| Nc1nc(Cl)cc(N=Nc2ccccc2)n1 | > 200 | 11.5 | – |
| N#CC12CCC(O)C(CC1)C2=O (stereo not given) | – | – | inactive |
| C/C(=N\N)C(CN1CCOCC1)C(c1ccccc1)c1c(O)c2ccccc2oc1=O (stereo not given) | > 89.1 | 85.1 | – |
| CCOc1cnc([C@H]2CCC3[C@@H]4CC=C5C[C@@H](OC(C)=O)CC[C@]5(C)C4CC[C@@]32C)s1 (stereo not given in full) | > 21.4 | > 21.4 | – |
| O=C(/C=C/c1ccccc1)NC(=S)NCc1ccco1 | > 200 | > 200 | – |
| CN1CCN2c3ccccc3CC(C#N)(C#N)C2C1 (stereo not given) | – | – | inactive |
| CCCN(CCC)C(=O)c1c([N+](=O)[O-])cc(C(F)(F)F)cc1[N+](=O)[O-] | – | – | inactive |
| Cn1c2ccccc2c2nnc(-n3nc(-c4ccccc4)cc3N)nc21 | > 200 | 53.7 | – |
| c1ccc(SC(Sc2ccccc2)=C2CCC2)cc1 | – | – | inactive |
| OC12CCC[N+]1(Cc1ccccc1)CCC2 (stereo not given) | > 794 | 708 | – |
| NCCN1C(=O)C2C3c4ccccc4C(c4ccccc43)C2C1=O (stereo not given) | – | – | inactive |
| CC(C)n1c2c(c3ccccc3c1=O)C(=O)c1ccccc1-2 | > 64.6 | > 64.6 | – |
| O=C1/C(=C/c2ccccc2)NC(=S)N1CN1CCCCC1 | > 200 | 33.9 | – |
| NS(=O)(=O)c1ccc(NC(=S)/N=C\c2c(O)[nH]c(=O)[nH]c2=O)cc1 | > 200 | > 200 | – |
| CCN1CCN(c2ccc(Nc3ccnc4ccc5nn(C)nc5c34)cc2)CC1 | > 18.6 | 7.24 | – |
| CSc1nc(C)c(C(=O)CCN2CCOCC2)s1 | > 200 | 10 | – |
| COc1ccc(/C=C/C(=O)c2ccccc2)cc1OC | > 97.7 | 18.2 | – |
| CN(OC(=O)CC(=O)c1ccccc1)C(=O)Cc1ccccc1 | > 251 | 191 | – |
| FC(F)(F)c1ccc(N=NN2CCCC2)cc1 | > 200 | 22.9 | – |
| O=C1N=C2SC(=S)NC(=S)N2NC12c1ccccc1-c1ccccc12 | > 200 | 32.4 | – |
| O=c1[nH]c(Nc2ccc(F)c(Cl)c2)nc2nc[nH]c12 | > 200 | > 200 | – |
| NC(=O)CNC(=O)C1CCCN1C(=O)C1CCCCNOC(=O)CC[C@@H](NC(=O)OCC2c3ccccc3-c3ccccc32)C(=O)NC(Cc2c[nH]c3ccccc23)C(=O)N1 (stereo not given in full) (Fmoc-[dE][ξW][X2][ξP]G-NH2; ester 1-3) | > 100 | > 100 | – |
| O=C1CSC(c2ccc([N+](=O)[O-])cc2)N1c1nc(-c2ccc3c(c2)CCCC3)cs1 (stereo not given) | 155 | 263 | – |

| SMILES | EC50 [µM] | IC50 [µM] | outcome |
| --- | --- | --- | --- |
| O=[N+]([O-])c1cccc(S(=O)(=O)c2cccc([N+](=O)[O-])c2)c1 | > 200 | > 200 | – |
| COC(=O)c1cc2c(c(C(=O)OC)c1O)C(=O)C=CC2=O | > 25.1 | 6.61 | – |
| C/C(=N\NS(=O)(=O)c1ccc([N+](=O)[O-])cc1)c1ccc[n+]([O-])n1 | – | – | inactive |
| Nc1nc(N)c(N=O)c(Nc2ccc(Br)c(Br)c2)n1 | – | – | inactive |
| Nc1c(S(=O)(=O)O)cc(Nc2ccc(S(=O)(=O)O)c(Nc3nc(Cl)nc(Cl)n3)c2)c2c1C(=O)c1ccccc1C2=O | > 200 | > 200 | – |
| OC1COC2CC(Nc3ccccn3)OC12 (stereo not given) | > 200 | > 200 | – |
| C[C@@H](O)[C@H]1/C=C/C=C\C(=O)O[C@@H]2C[C@H]3O[C@@H]4[C@@H]5OC5(C)CCC4(COC(=O)[C@H]4O[C@]4(C)[C@@H](O)CO1)[C@]2(C)[C@]31CO1 (stereo not given in full) | > 0.2 | 0.0631 | – |
| Cc1ccccc1C1CC(c2ccccc2)=NO1 (stereo not given) | > 57.5 | > 57.5 | – |
| Cc1ccccc1N(CCC#N)C1=NN(C(=O)CC(=O)Nc2ccc(Cl)cc2)C(c2ccccc2)C1 (stereo not given) | > 501 | > 501 | – |
| CCCCc1c(N(C)C)c(OC(C)=O)c(-c2cn(C)c3ccccc23)oc1=O | > 200 | 31.6 | – |
| N#CC(c1ccccn1)c1nc2ccccc2[nH]1 (stereo not given) | > 8.51 | > 8.51 | – |
| O=c1[nH][nH]c(=O)c2nc(Nc3ccco3)ncc12 | > 240 | > 240 | – |
| CC(=O)Nc1c(S(=O)(=O)c2ccccc2)c(C)c(C)n1CCN(C)C | > 200 | > 200 | – |
| CC(=O)OCC12CC(CC1OC(C)=O)c1ccccc12 (stereo not given) | > 251 | > 251 | – |
| Nc1ncc(Br)c(NCC2(CO)CCC2)n1 | > 200 | 15.8 | – |
| NC(=O)N/N=C1\CCCc2ccccc21 | > 178 | > 178 | – |
| Cc1cc(C)c(C2=[N+]([O-])ON3CCc4ccccc4C23)c(C)c1 (stereo not given) | > 115 | > 115 | – |
| FC1(F)ON2CCc3ccccc3C2[C@H]1c1ccccc1 (stereo not given in full) | > 200 | 15.5 | – |
| CCCc1cc(=O)oc2c3c(c4c(c12)OC(C)(C)[C@H](O)[C@H]4O)O[C@@H](C)[C@H](C)[C@@H]3O | > 200 | 115 | – |
| Cc1nc2ccccc2c(C)[n+]1[O-] | > 200 | > 200 | – |
| CC[P+]1(c2ccccc2)[C@@H](C)CC[C@@H]1C | > 200 | 91.2 | – |
| C[N+]12CCCc3cccc(c31)CCC2 | > 794 | 182 | – |
| CSc1nc2c(nc(N)n2C2OC(CO)C(O)C(O)C2O)c(=O)[nH]1 (stereo not given) | – | – | inactive |

| SMILES | EC50 [µM] | IC50 [µM] | outcome |
| --- | --- | --- | --- |
| O=C1C2=C(c3ccccc31)C(c1ccccc1)NC(=S)N2 (stereo not given) | > 89.1 | 37.2 | – |
| [N-]=[N+]=CC(=O)c1ccccc1C#CCCc1ccccc1 | 46.8 | 67.6 | – |
| NC(Cc1c[nH]c2ccccc12)P(=O)(O)O (stereo not given) | > 200 | > 200 | – |
| Cc1ccc(S(=O)(=O)c2ccc(N)cc2)cc1 | – | – | inactive |
| O=C(N/N=C/c1ccc(Cl)cc1)c1ccccc1Nc1ccccc1C(=O)N/N=C/c1ccc(Cl)cc1 | 55 | > 200 | – |
| O=c1c2ccccc2oc2c(Cl)cc(Cl)cc12 | > 490 | 263 | – |
| Cc1nc2ccccc2c(=O)n1CC(=O)O | – | – | inactive |
| CN(CCSSCCN(C)/N=C/c1ccccc1)/N=C/c1ccccc1 | > 200 | > 200 | – |
| CC1(C)Oc2ccc3ccc(=O)oc3c2C(O)C1O (stereo not given) | > 200 | 115 | – |
| CC(C)(C)C1=CC(=C(P(=O)(O)O)P(=O)(O)O)C=C(C(C)(C)C)C1=O | > 537 | > 537 | – |
| CCOC(=O)/C(=C/c1ccccn1)C(=O)c1ccccc1 | > 240 | 12.6 | – |
| O=C(c1cccc(O)c(=O)c1)C1OC1c1ccccc1 (stereo not given) | > 145 | 2.82 | – |
| Cc1cc(S(=O)(=O)Nc2nnc3cnc4ccccc4n23)c(S)cc1Cl | 89.1 | 339 | – |
| CC([C@H]1CCC2[C@@H]3CCC4C(=O)C(NC(=O)c5ccccc5)=CC[C@]4(C)C3CC[C@@]21C)N(C)C (stereo not given in full) | > 4.37 | 1.32 | – |
| COc1ccc(S(=O)(=O)N(C)C)cc1C(=O)c1cc(S(=O)(=O)N(C)C)ccc1OC | > 2.29 | > 2.29 | – |
| O=C(O)CCSC(=S)NCCNC(=S)SCCC(=O)O | > 708 | 437 | – |
| CC(C)C(NC(=O)C1CCCN1C(=O)OCc1ccccc1)C(=O)NN (stereo not drawn) (Cbz-Pro-Val-NHNH2; configuration not given here) | > 692 | 407 | – |
| O=C(NCCCN1CCN(CCCNC(=O)c2ccc(N=Nc3ccccc3)cc2)CC1)c1ccc(N=Nc2ccccc2)cc1 | > 100 | 53.7 | – |
| c1ccc(-c2ccccn2)nc1 | > 1580 | 27.5 | – |
| Cc1[nH]c(=O)nc2c1C(NCCCN(C)C)c1cc(Cl)ccc1N2 (stereo not given) | > 200 | 8.91 | – |
